# Patent publication US8637050B2, “Peptide vaccines against group A streptococci” (The United States of America, as represented by the …, priority 2001, dated 2014)
# Tested on: rabbit sera prepared against whole M protein
# Assay: ELISA: peptide recognition by anti-M protein rabbit sera
# Type: binding
# Description: Overlapping peptides representing each M type were assessed for their immunogenicity using ELISA and dot-immunoblot.
# Levels of anti-M protein antibodies in mouse sera were determined by an enzyme-linked immunosorbent assay (ELISA) using either synthetic peptides or whole M protein as antigen. Microtiter plates (DYNEX Immulon 2 HB) were coated with 10 μg/ml antigen in 10 mM phosphate-buffered saline (PBS) at 4° C. overnight. Plates were rinsed three times with wash buffer (0.05% Tween 20 in 10 mM PBS, pH 7.2) and blocked with 1% BSA in PBS for one hour at 37° C. The appropriate test sera were applied at a starting dilution of 1:1000 and serially diluted two fold down the plate in PBS. Plates were incubated at 37° C. for 30 minutes and subsequently rinsed three times. Goat anti-rabbit or goat anti-mouse Ig-peroxidase conjugate diluted 1:10,000 in PBS was added to all wells and incubated for two hours at 37° C. Plates were rinsed three times with wash buffer and freshly prepared TMB peroxidase (Kirkegaard and Perry Laboratories) was added. Reactions were quenched with 0.18 M H2SO4 after 30 minutes at room temperature and OD450 was measured with a Labsystems Multiskan plate reader using Ascent software. ELISA titers are expressed as the reciprocal of the last dilution which gave a reading OD450>0.10.
# The immunoreactivity of several synthetic peptides was determined by ELISA using rabbit sera prepared against whole M protein. The synthetic peptides are representative of relatively small portions of the M protein N-terminus; therefore, it was advantageous to determine if the epitopes contained within particular peptides were immunoreactive with sera prepared against whole M protein. It was shown that the whole anti-M protein rabbit sera of the respective serotypes could bind to each of the synthetic peptides within that serotype. However, some peptides were more highly immunoreactive than others, thus being better suited for use in the animal studies.
row,Sequence,immunoreactivity by ELISA using rabbit sera prepared against whole M protein
1,CKNDKLSSENEGLKAGLQEKE [Peptide M101-5],confirmed
2,CRENYRRTLDKFNTEQGKTTR [Peptide M75-5],confirmed
3,CLEEERGEHLDKIDELKEELK [Peptide M89-8],confirmed
4,CNTLNTLTDENEKLREELQQ [Peptide M22-4],confirmed
5,CAAPLTRATADNKDELIKRAND [Peptide M18-1],confirmed
6,CAESPKSTETSANGADKLAD [Peptide M28-1],confirmed
7,CNENKSLRRERDNYLNYLYEK [Peptide M59-3],confirmed
8,CRATADNKDELIKRANDYEIQ [Peptide M18-2],confirmed
9,CNGDGNPREVIEDLAANNPAIQ [Peptide M1-1],confirmed
10,CEGVSVGSDASLHNRITDLEEEREK [Peptide M77-1],confirmed
11,CESSNISQESKLINTLTDENEK [Peptide M22-2],confirmed
12,CKAKELEKQVEEYKKNYETLEK [Peptide M58-3],confirmed
13,CNSKNPAPAPASAVPVKKEATK [st2967-1],confirmed
14,CNSKNPAPAPAVPVKKEATKL [st2967-4],confirmed
15,CLDQVTQLYTKHNSNYQQYSA [Peptide M3-5],confirmed
16,CELHDKIKNLEEEKAELFEKLD [Peptide M2-3],confirmed
17,CDSDNINRFVSVKDNEKELHN [Peptide M89-6],confirmed
18,CQLRDPYAGAFRRNNELEKIIQE [Peptide M41-5],confirmed
19,CDNINRSVSVKDNEKELHNKIAD [Peptide M89-2],confirmed
20,CEAGVSKFWKSKFDAEQNRANE [Peptide M82-3],confirmed
21,CRREEKDRYLYEKEELEKKNK [Peptide M94-4],confirmed
22,CHDLKTKNEGLKTENEGLKTEN [Peptide M5-9],confirmed
23,CHEREKNDKLSSENEGLK [Peptide M101-3],confirmed
24,CDKLRLEKEELKTDLQKKERE [Peptide M101-4],confirmed
25,CRGTVENPDKARELLNKYDVEN [Peptide M6-2],confirmed
26,CDSSREVTNELAASMWKAQAD [Peptide M58-4],confirmed

row,Sequence,immunoreactivity by ELISA using rabbit sera prepared against whole M protein
1,CEIQNHQLTVENKKLKTDKEQ [Peptide M18-3],confirmed
2,CRLAQAQEEALRDVLNNTPHN [Peptide M41-2],confirmed
3,CDNQSPAPVKKEAKKLNEAE [Peptide M73-1],confirmed
4,CEGNARLAQAQEEALRDVLNN [Peptide M41-1],confirmed
5,CNSKNPVPVKKEAKLSEAELHDK [Peptide M2-1],confirmed
6,CKGTNVSADLYNSLWDENKT [Peptide M11-2],confirmed
7,CADHPSYTAAKDEVLSKFSVPGH [Peptide M101-1],confirmed
8,CKFERLKRRSELYLQQYYDNK [Peptide M12-5],confirmed
9,CKDELIKRKELTIIEIQNHQL [Peptide M18-5],confirmed
10,CRVFPRGTVENPDKARELLNK [Peptide M6-1],confirmed
11,CTQLYTKHNSNYQQYNAQAGR [Peptide M3-11],confirmed
12,CENSMLQANNDNLTDQNKNLTD [Peptide M6-4],confirmed
13,CKKEAKKLNEAELYNKIQELE [Peptide M73-2],confirmed
14,CNGDGNPRVVIEDLAANNPAIQ [Peptide M1-7],confirmed
15,CTVTRSTINDPQRAKEALDKYE [Peptide M5-8],confirmed
16,CDNQSPALVKKEAKKLNEAEL [Peptide M73-4],confirmed
17,CLDQVTQLYTKHNSNYQQYNA [Peptide M3-3],confirmed
18,CTVTRGTVNDPQRAKEALDKYE [Peptide M5-5],confirmed
19,CKENEELKVEREKYLSYADDK [Peptide M4-3],confirmed
20,CDLEEEREKLLNKLDKVEEEHKKD [Peptide M77-3],confirmed
21,CNGDGNPREVIEDLAANNPVIQ [Peptide M1-6],confirmed
22,CDLEEERGKLLNKLDKVEEEHK [Peptide M77-4],confirmed
23,CAEIKKPQADSAWNWPKEYNA [Peptide M4-1],confirmed
24,CDNQSPAPAPVKKEAKKLNEAE [Peptide M73-5],confirmed
25,CHEKVTQAREAVIREMQQRGT [Peptide M33-2],confirmed
26,CENHDLKTKNEGLKTENEGLK [Peptide M5-3],confirmed

row,Sequence,immunoreactivity by ELISA using rabbit sera prepared against whole M protein
1,CDLLAKHGELLSEYDALKEKQDK [Peptide M92-4],confirmed
2,CAGQSAPKGTNVSADLYNSLWDE [Peptide M11-1],confirmed
3,CVPVKKEATKLSEAELYNKIQ [st2967-2],confirmed
4,CDAEQNRANELEKKLSGYEKD [Peptide M82-4],confirmed
5,CDDRSVSTNSGSVSTPYNNLLNE [Peptide M92-1],confirmed
6,CTVTRGTINDPQRAKEALDKYE [Peptide M5-1],confirmed
7,CQHKNNALTSENESLRREKDR [Peptide M94-2],confirmed
8,CKQRSELYLQQYYDNKSNRYK [Peptide M12-6],confirmed
9,CLRQKEENDKLKLEKKGLETE [Peptide M43-4],confirmed
10,CNHQLTVENKKLKTDKEQLTKE [Peptide M18-6],confirmed
11,CRRERDNYLNYLYEKEELEKK [Peptide M59-4],confirmed
12,CDPQRAKEALDKYELENHDLK [Peptide M5-2],confirmed
13,CREVTNELTASMWKAQADSAK [Peptide M58-2],confirmed
14,CNDELRENYRRTLDKFNTEQ [Peptide M75-3],confirmed
15,CESSNNAESSNISQESKLINT [Peptide M22-1],confirmed
16,CDSSSRDITEAGVSKFWKSKFD [Peptide M82-1],confirmed
17,CEKLREELQQYYALSDAKEEE [Peptide M22-6],confirmed
18,CESLRREKDRYLYEKEELEKK [Peptide M94-3],confirmed
19,CKFERLKQRSELYLHQYYDNK [Peptide M12-4],confirmed
20,CKAWKSENDELRENYRKTLDK [Peptide M75-4],confirmed
21,CEMQQRGTNFGPLLASTMRDNH [Peptide M33-3],confirmed
22,CDVLNNTPHNQLRDAYAGAFRR [Peptide M41-4],confirmed
23,CIRLRHHENKDLKARLENAMEV [Peptide M1-8],confirmed
24,CELFEKLDKVEEEHKKVEEEHKK [Peptide M2-4],confirmed
25,CDSDNINRSVSVKDNEKELHNK [Peptide M89-1],confirmed
26,CQRAKAALDKYELENHDLKTKN [Peptide M5-4],confirmed
